Data taken from paper PMC3804772, “Rational Design, Synthesis, and Biological Evaluation of Third Generation α-Noscapine Analogues as Potent Tubulin Binding Anti-Cancer Agents” (PLoS ONE, 2013).
Read-outs that look alike come from different tables or passages of the source.

Key:
[1] = tested on: human lymphoblast cell line (CEM); assay: In vitro cell proliferation assay (SRB), CEM; format: cell-based; settings: 72 h, mean ± S.D.
Procedure: (§1) The cell proliferation assay was performed in 96-well plates as described previously. A panel of four cancer cell lines of different tissues of origins, namely: human lung adenocarcinoma epithelial cell line (A549), human lymphoblast cell line (CEM), human cervix cell line (HeLa) and human breast epithelial cell line (MCF-7) were studied. These cell lines were obtained from the National Repository of Animal Cell Culture, National Centre for Cell Sciences, Pune (NCCS), India. Briefly, 2 x10^3 cells were seeded in each well and were incubated with gradient concentrations of 5a, 6a-j compounds for 72 h. The cells were then fixed with 50% trichloroacetic acid and stained with 0.4% sulforhodamine B (SRB) dissolved in 1% acetic acid. Cells were then washed with1% acetic acid to remove excess (unbound) SRB. The protein-bound SRB was dissolved with 10 mM Tris base and the absorbance at 564 nm was determined using a SPECTRAmax PLUS 384 microplate spectrophotometer.

[2] = tested on: human cervix cell line (HeLa); assay: In vitro cell proliferation assay (SRB), HeLa; format: cell-based; settings: 72 h, mean ± S.D.
Procedure: as §1

[3] = tested on: human breast epithelial cell line (MCF-7); assay: In vitro cell proliferation assay (SRB), MCF-7; format: cell-based; settings: MCF7, 72 h, mean ± S.D.
Procedure: as §1

[4] = tested on: human lung adenocarcinoma epithelial cell line (A549); assay: In vitro cell proliferation assay (SRB), A549; format: cell-based; settings: 72 h, mean ± S.D.
Procedure: as §1

tubulin [5] = settings: cited from earlier work
MCF-7 cells = assay: Cell cycle analysis by flow cytometry (propidium iodide); format: cell-based, human; settings: MCF-7, 25 µM
Procedure: The flow cytometric evaluation of the cell cycle status was performed as described previously. Briefly, cells (2 x 10^6) treated with the noscapinoids up to 72 h were centrifuged, washed twice with cold PBS, and fixed in 70% ethanol. Tubes containing the cell pellets were stored at 4 °C for minimum of 24 h. Cells were then centrifuged at 1000 x g for 10 min and the supernatant was discarded. The pellets were washed twice with 5 ml of PBS and then stained with 0.5 ml of propidium iodide (0.1% of Pl + 0.6% Triton-X in PBS) and 0.5 ml of RNase A (2 mg/ml) for 45 minutes in dark. Samples were then analyzed on a FACS Calibur flow cytometer ([…]).

tubulin [6] = assay: Tubulin binding of noscapine and previously reported noscapinoids (literature values); settings: Table 1; calculated from KD, ΔGbind = RT ln KD, T = 298 K
Procedure: Here ⟨ ⟩ represent the ensemble average, b represents the bound form of the ligand, f represents the free form of the ligand, and α, β, and γ are the coefficients. U vdw, U elec, and U cav are the van der Waals, electrostatic, and cavity energy terms in the SGB continuum solvent model. The cavity energy term, U cav, is proportional to the exposed surface area of the ligand. Various energy parameters included in equation 1 were calculated from the docked complex corresponding to each analogue using Liaison package as described previously. The average LIE energy terms were used for building the binding affinity model and estimation of binding free energies of noscapine derivatives. The α, β, and γ LIE fitting parameters were determined using Minitab statistical package (version 16.0, Minitab Inc.) by fitting the experimental binding affinities of training set molecules. A dataset consisting of 7 noscapine derivatives (compounds: 1, 2a-f; Figure 2) with known experimental binding affinities was used as a training set.

tubulin [7] = target: T1, tubulin (Bos taurus, UniProt P81947+Q6B856); assay: Tubulin binding assay (quenching of intrinsic tryptophan fluorescence); design: species or system bovine; settings: for Kd: 2 µM tubulin, PEM buffer pH 6.8, 37 °C, 45 min, mean ± S.D.; for Experimental ΔGbind: calculated from KD, ΔGbind = RT ln KD, T = 298 K
T1 construct: Tubulin devoid of microtubule-associated proteins (MAPs) was purified from bovine brain; from tissue; host or cells: bovine brain
Procedure: Tubulin devoid of microtubule-associated proteins (MAPs) was purified from bovine brain by cycles of temperature-dependent polymerization and depolymerization as described previously followed by phosphocellulose chromatography. The concentration of the tubulin was determined by the method of Bradford using BSA as the standard. Purified tubulin was quickly frozen as drops in liquid nitrogen and stored at - 80 °C until used.
Noscapinoids quench the […] intrinsic tryptophan fluorescence of tubulin in a concentration-dependent fashion as described previously. This has allowed an easy method for measuring the tubulin-noscapinoids interactions. Briefly, the compounds 5a, 6a-j (0-200 µM) were incubated with 2 µM tubulin in PEM buffer (100 mM PIPES, pH 6.8, 3 mM MgSO4, and 1 mM EGTA) at 37 °C for 45 min. After incubation, the samples were excited at 295 nm. The relative intrinsic fluorescence intensity of the tubulin was then monitored in the absence and presence of the compound 5a, 6a-j using a Varian Cary Eclipse Fluorescence Spectrophotometer (Agilent Technologies, CA, USA). The emission readings were recorded at 335 nm. We used a 0.3 cm path-length cuvette to minimize the inner filter effects caused by the absorbance of the noscapinoids. In addition, the inner filter effects were corrected using a formula F corrected = F observed·antilog [(A ex + A em)/2], where A ex is the absorbance at the excitation wavelength and A em is the absorbance at the emission wavelength. The equilibrium dissociation constant (KD) was determined by the formula: 1/a = KD/[free ligand] + 1, where a is the fractional occupancy and [free ligand] is the concentration of free ligand. The fractional occupancy (a) was determined by the formula a = ΔF/ΔF max, where ΔF is the change in fluorescence intensity when tubulin and its ligand are in equilibrium and ΔF max is the value of maximum fluorescence change when tubulin is completely bound with its ligand. ΔF max was calculated by plotting 1/ΔF versus 1/ligand, using total ligand concentration as the first estimate of free ligand concentration. Three independent experiments were performed for each noscapinoid.

[8] = tested on: cancer cells of different tissues of origin (CEM, HeLa, A549, MCF-7); assay: In vitro cell proliferation assay (SRB), panel of four cancer cell lines; format: cell-based; settings: Homo sapiens; range over cancer cells of different tissues of origin
Procedure: as §1

[9] = Table 1, training set with known experimental binding affinities, mean ± S.D., read-out: KD value

T1 sequence (Q6B856 whole entry): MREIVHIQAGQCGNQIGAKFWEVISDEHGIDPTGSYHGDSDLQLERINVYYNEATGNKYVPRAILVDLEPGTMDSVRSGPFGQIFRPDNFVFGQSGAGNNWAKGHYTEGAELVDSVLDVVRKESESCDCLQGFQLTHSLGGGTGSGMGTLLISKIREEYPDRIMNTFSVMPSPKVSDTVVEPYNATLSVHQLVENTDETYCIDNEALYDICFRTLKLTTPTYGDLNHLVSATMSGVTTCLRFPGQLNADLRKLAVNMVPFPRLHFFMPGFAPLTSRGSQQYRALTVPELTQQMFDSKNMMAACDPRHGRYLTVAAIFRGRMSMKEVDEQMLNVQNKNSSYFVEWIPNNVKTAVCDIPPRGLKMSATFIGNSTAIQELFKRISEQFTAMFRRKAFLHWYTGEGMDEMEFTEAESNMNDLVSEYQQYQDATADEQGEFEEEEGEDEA
T1 sequence (P81947 whole entry): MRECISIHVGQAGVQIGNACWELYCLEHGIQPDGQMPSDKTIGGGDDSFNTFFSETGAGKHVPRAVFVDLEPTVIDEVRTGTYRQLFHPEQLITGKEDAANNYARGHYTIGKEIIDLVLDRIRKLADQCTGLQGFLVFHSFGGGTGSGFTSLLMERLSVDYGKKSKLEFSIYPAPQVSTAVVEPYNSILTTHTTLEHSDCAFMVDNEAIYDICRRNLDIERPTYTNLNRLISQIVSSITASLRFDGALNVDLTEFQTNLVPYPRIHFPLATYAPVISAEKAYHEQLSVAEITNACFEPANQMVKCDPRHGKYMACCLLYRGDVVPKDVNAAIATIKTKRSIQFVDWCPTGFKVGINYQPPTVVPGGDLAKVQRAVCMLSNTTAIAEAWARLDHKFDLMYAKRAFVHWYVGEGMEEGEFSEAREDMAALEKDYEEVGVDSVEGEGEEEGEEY

| SMILES | IC50 [2] [µM] | IC50 [3] [µM] | IC50 [4] [µM] | Experimental ΔGbind (tubulin [6]) [kcal/mol] | melting point [°C] | Kd (tubulin [7]) [µM] | Experimental ΔGbind (tubulin [7]) [kcal/mol] | IC50 [1] [µM] | Cell cycle parameters % G0/G1, 24 hours (MCF-7 cells) [%] | Cell cycle parameters % G2/M, 24 hours (MCF-7 cells) [%] | Cell cycle parameters % S, 24 hours (MCF-7 cells) [%] | Cell cycle parameters % Sub-G1, 24 hours (MCF-7 cells) [%] | Cell cycle parameters % G0/G1, 72 hours (MCF-7 cells) [%] | Cell cycle parameters % G2/M, 72 hours (MCF-7 cells) [%] | Cell cycle parameters % S, 72 hours (MCF-7 cells) [%] | Cell cycle parameters % Sub-G1, 72 hours (MCF-7 cells) [%] | Kd (tubulin [5]; [9]) [µM] | other results |
| --- | --- | --- | --- | --- | --- | --- | --- | --- | --- | --- | --- | --- | --- | --- | --- | --- | --- | --- |
| COc1ccc2c(c1OC)C(=O)O[C@@H]2[C@H]1c2c(cc3c(c2OC)OCO3)CCN1C [Compound 1, noscapine] | 24 ± 2.9 | 42.3 ± 2.7 | 72.9 ± 4.6 | -5.246 |  |  |  | 14.5 ± 2.5 | 19.48 | 62.38 | 4.19 | 7.24 | 19.05 | 37.36 | 8.53 | 30.62 |  | Binding stoichiometry, noscapine molecule per tubulin dimer (tubulin [5]): 0.95 ± 0.02; Kd (tubulin [5]; values quoted in the text for comparison, read-out: Equilibrium dissociation constant (KD)): 144 ± 1 µM |
| COc1ccc2c(c1OC)C(=O)O[C@@H]2[C@H]1c2c(c(F)c3c(c2OC)OCO3)CCN1C [Compound 2a] |  |  |  | -5.587 |  |  |  |  |  |  |  |  |  |  |  |  | 81 ± 8 |  |
| COc1ccc2c(c1OC)C(=O)O[C@@H]2[C@H]1c2c(c(Cl)c3c(c2OC)OCO3)CCN1C [Compound 2b] |  |  |  | -6.006 |  |  |  |  |  |  |  |  |  |  |  |  | 40 ± 8 |  |
| COc1ccc2c(c1OC)C(=O)O[C@@H]2[C@H]1c2c(c(Br)c3c(c2OC)OCO3)CCN1C [Compound 2c, 9-bromonoscapine] |  |  |  | -5.827 |  |  |  |  |  |  |  |  |  |  |  |  | 54 ± 9.1 |  |
| COc1ccc2c(c1OC)C(=O)O[C@@H]2[C@H]1c2c(c(I)c3c(c2OC)OCO3)CCN1C [Compound 2d] |  |  |  | -6.360 |  |  |  |  |  |  |  |  |  |  |  |  | 22 ± 4 |  |
| COc1ccc2c(c1OC)C(=O)O[C@@H]2[C@H]1c2c(c([N+](=O)[O-])c3c(c2OC)OCO3)CCN1C [Compound 2e] |  |  |  | -5.551 |  |  |  |  |  |  |  |  |  |  |  |  | 86 ± 6 |  |
| COc1ccc2c(c1OC)C(=O)O[C@@H]2[C@H]1c2c(c(N=[N+]=[N-])c3c(c2OC)OCO3)CCN1C [Compound 2f] |  |  |  | -6.628 |  |  |  |  |  |  |  |  |  |  |  |  | 14 ± 1 |  |

Second part, led by results:

| IC50 [2] [µM] | IC50 [3] [µM] | IC50 [4] [µM] | Experimental ΔGbind (tubulin [6]) [kcal/mol] | melting point [°C] | Kd (tubulin [7]) [µM] | Experimental ΔGbind (tubulin [7]) [kcal/mol] | SMILES | IC50 [1] [µM] | Cell cycle parameters % G0/G1, 24 hours (MCF-7 cells) [%] | Cell cycle parameters % G2/M, 24 hours (MCF-7 cells) [%] | Cell cycle parameters % S, 24 hours (MCF-7 cells) [%] | Cell cycle parameters % Sub-G1, 24 hours (MCF-7 cells) [%] | Cell cycle parameters % G0/G1, 72 hours (MCF-7 cells) [%] | Cell cycle parameters % G2/M, 72 hours (MCF-7 cells) [%] | Cell cycle parameters % S, 72 hours (MCF-7 cells) [%] | Cell cycle parameters % Sub-G1, 72 hours (MCF-7 cells) [%] | Kd (tubulin [5]; [9]) [µM] | other results |
| --- | --- | --- | --- | --- | --- | --- | --- | --- | --- | --- | --- | --- | --- | --- | --- | --- | --- | --- |
| 15.3 ± 0.5 | 24.5 ± 0.8 | 26.9 ± 1.4 |  | 65 | 38 ± 4 | -6.036 | COc1ccc2c(c1OC)C(=O)O[C@@H]2[C@H]1c2c(cc3c(c2OC)OCO3)CCN1Cc1cccc(Br)c1 [Compound 6f, (S)-3-((R)-6-(3-bromobenzyl)-4-methoxy-5,6,7,8-tetrahydro-[1,3]dioxolo[4,5-g]isoquinolin-5-yl)-6,7-dimethoxyisobenzofuran-1(3H)-one] | 6.7 ± 0.3 | 11.82 | 67.48 | 6.29 | 9.47 | 6.38 | 37.29 | 4.72 | 50.44 |  | Tubulin binding affinity relative to the parent compound noscapine (tubulin [7]; ratio of KD values): ~ 4.0 times; IC50 [8]: 6.7 to 26.9 µM |
| 22.3 ± 1.2 | 36 ± 1.9 | 45.4 ± 2.5 |  | 155 | 79 ± 8 | -5.602 | COC(=O)CN1CCc2cc3c(c(OC)c2[C@@H]1[C@H]1OC(=O)c2c1ccc(OC)c2OC)OCO3 [Compound 6i, Methyl 2-((R)-5-((S)-4,5-dimethoxy-3-oxo-1,3-dihydroisobenzofuran-1-yl)-4-methoxy-7,8-dihydro-[1,3]dioxolo[4,5-g]isoquinolin-6(5H)-yl)acetate] | 9.5 ± 0.7 | 19.57 | 63.38 | 4.62 | 12.25 | 14.37 | 37.15 | 6.43 | 40.18 |  |  |
| 32.4 ± 2.4 | 52.6 ± 3.8 | 72.3 ± 3.5 |  | 92 | 228 ± 10 | -4.973 | CCOC(=O)CN1CCc2cc3c(c(OC)c2[C@@H]1[C@H]1OC(=O)c2c1ccc(OC)c2OC)OCO3 [Compound 6j, Ethyl 2-((R)-5-((S)-4,5-dimethoxy-3-oxo-1,3-dihydroisobenzofuran-1-yl)-4-methoxy-7,8-dihydro-[1,3]dioxolo[4,5-g]isoquinolin-6(5H)-yl)acetate] | 13.6 ± 1.3 | 25.71 | 66.17 | 3.09 | 8.29 | 22.16 | 39.48 | 8.63 | 27.24 |  |  |
